Experimental data published in the NIST ThermoML archive (doi:10.1021/acs.jced.8b00692).
± gives the expanded uncertainty stated by the source.

Experiment: xn = mol fraction of the nth substance listed
Details: 102 kPa, Liquid; for viscosity: Concentric cylinders viscometry; for speed of sound: Frequency=3 MHz, Single path-length method; for mass density: Vibrating tube method

CCCCCCCC1CCCCC1 [heptylcyclohexane] + CCCCCCCCCCCCCCCC
Details | mass density [kg/m3] | speed of sound [m/s] | viscosity [mPa·s]
293.15 K, x1 = 0.1997 | 779.33 ± 0.81 | 1358.9 ± 0.7 | 3.34 ± 0.02
293.15 K, x1 = 0.4002 | 785.92 ± 0.81 | 1362 ± 0.7 | 3.2 ± 0.02
293.15 K, x1 = 0.5001 | 789.55 ± 0.81 | 1363.4 ± 0.7 | 3.13 ± 0.02
293.15 K, x1 = 0.6006 | 793.34 ± 0.81 | 1365.3 ± 0.7 | 3.05 ± 0.02
293.15 K, x1 = 0.7998 | 801.63 ± 0.81 | 1368.8 ± 1.1 | 2.92 ± 0.02
293.15 K, x1 = 1 | 810.99 ± 0.81 | 1374.4 ± 0.8 | 2.8 ± 0.02
303.15 K, x1 = 0.1997 | 772.4 ± 0.81 | 1321.7 ± 0.7 | 2.66 ± 0.02
303.15 K, x1 = 0.4002 | 778.99 ± 0.81 | 1324.4 ± 0.7 | 2.56 ± 0.02
303.15 K, x1 = 0.5001 | 782.6 ± 0.81 | 1326.1 ± 0.7 | 2.51 ± 0.02
303.15 K, x1 = 0.6006 | 786.39 ± 0.81 | 1327.5 ± 0.7 | 2.45 ± 0.02
303.15 K, x1 = 0.7998 | 794.64 ± 0.81 | 1331.3 ± 1.1 | 2.35 ± 0.02
303.15 K, x1 = 1 | 803.96 ± 0.81 | 1336.1 ± 0.8 | 2.26 ± 0.02
313.15 K, x1 = 0.1997 | 765.47 ± 0.81 | 1285.1 ± 0.7 | 2.17 ± 0.02
313.15 K, x1 = 0.4002 | 772.06 ± 0.81 | 1287.5 ± 0.7 | 2.08 ± 0.02
313.15 K, x1 = 0.5001 | 775.66 ± 0.81 | 1289.4 ± 0.7 | 2.05 ± 0.02
313.15 K, x1 = 0.6006 | 779.44 ± 0.81 | 1290.6 ± 0.7 | 2.01 ± 0.02
313.15 K, x1 = 0.7998 | 787.98 ± 0.81 | 1294.3 ± 1.1 | 1.93 ± 0.02
313.15 K, x1 = 1 | 796.93 ± 0.81 | 1298.7 ± 0.8 | 1.86 ± 0.02
323.15 K, x1 = 0.1997 | 758.54 ± 0.81 | 1249.3 ± 0.7 | 1.8 ± 0.01
323.15 K, x1 = 0.4002 | 765.13 ± 0.81 | 1251.5 ± 0.7 | 1.73 ± 0.01
323.15 K, x1 = 0.5001 | 768.71 ± 0.81 | 1253.4 ± 0.7 | 1.71 ± 0.01
323.15 K, x1 = 0.6006 | 772.48 ± 0.81 | 1254.5 ± 0.7 | 1.67 ± 0.01
323.15 K, x1 = 0.7998 | 780.65 ± 0.81 | 1258.1 ± 1.1 | 1.61 ± 0.01
323.15 K, x1 = 1 | 789.89 ± 0.81 | 1262.1 ± 0.8 | 1.56 ± 0.01
333.15 K, x1 = 0.1997 | 751.62 ± 0.81 | 1214.4 ± 0.7 | 1.52 ± 0.01
333.15 K, x1 = 0.4002 | 758.19 ± 0.81 | 1216.7 ± 0.7 | 1.46 ± 0.01
333.15 K, x1 = 0.5001 | 761.75 ± 0.81 | 1218.2 ± 0.7 | 1.45 ± 0.01
333.15 K, x1 = 0.6006 | 765.51 ± 0.81 | 1219.4 ± 0.7 | 1.42 ± 0.01
333.15 K, x1 = 0.7998 | 773.64 ± 0.81 | 1222.8 ± 1.1 | 1.37 ± 0.01
333.15 K, x1 = 1 | 782.83 ± 0.81 | 1226.5 ± 0.8 | 1.33 ± 0.01
343.15 K, x1 = 0.1997 | 744.7 ± 0.8 | – | 1.31 ± 0.01
343.15 K, x1 = 0.4002 | 751.3 ± 0.8 | – | 1.25 ± 0.01
343.15 K, x1 = 0.5001 | 754.8 ± 0.8 | – | 1.25 ± 0.01
343.15 K, x1 = 0.6006 | 758.6 ± 0.8 | – | 1.22 ± 0.01
343.15 K, x1 = 0.7998 | 766.7 ± 0.8 | – | 1.18 ± 0.01
343.15 K, x1 = 1 | 775.8 ± 0.8 | – | 1.15 ± 0.01
353.15 K, x1 = 0.1997 | 737.7 ± 0.8 | – | 1.12 ± 0.01
353.15 K, x1 = 0.4002 | 744.3 ± 0.8 | – | 1.09 ± 0.01
353.15 K, x1 = 0.5001 | 747.8 ± 0.8 | – | 1.07 ± 0.01
353.15 K, x1 = 0.6006 | 751.6 ± 0.8 | – | 1.06 ± 0.01
353.15 K, x1 = 0.7998 | 759.6 ± 0.8 | – | 1.03 ± 0.01
353.15 K, x1 = 1 | 768.7 ± 0.8 | – | 0.993 ± 0.012
363.15 K, x1 = 0.1997 | 730.8 ± 0.8 | – | 1 ± 0.01
363.15 K, x1 = 0.4002 | 737.8 ± 0.8 | – | 0.954 ± 0.012
363.15 K, x1 = 0.5001 | 740.7 ± 0.8 | – | 0.962 ± 0.012
363.15 K, x1 = 0.6006 | 744.5 ± 0.8 | – | 0.932 ± 0.012
363.15 K, x1 = 0.7998 | 752.6 ± 0.8 | – | 0.903 ± 0.012
363.15 K, x1 = 1 | 761.6 ± 0.8 | – | 0.892 ± 0.012
373.15 K, x1 = 0.1997 | 723.7 ± 0.8 | – | 0.866 ± 0.012
373.15 K, x1 = 0.4002 | 730.3 ± 0.8 | – | 0.845 ± 0.012
373.15 K, x1 = 0.5001 | 733.7 ± 0.8 | – | 0.834 ± 0.012
373.15 K, x1 = 0.6006 | 737.5 ± 0.8 | – | 0.827 ± 0.012
373.15 K, x1 = 0.7998 | 745.4 ± 0.8 | – | 0.803 ± 0.012
373.15 K, x1 = 1 | 754.4 ± 0.8 | – | 0.776 ± 0.012
